Laboratory results: patent US9211310B2, “Use of a Chinese medicine composition in preparing medicaments for treating secondary prevention of myocardial infarction” (TASLY PHARMACEUTICAL GROUP CO., LTD, priority 2010, dated 2015)

Tested on: patients after acute myocardial infarction
Assay: Life quality, Seattle Angina Questionnaire (SAQ), same clinical trial
Assay type: in vivo, human
From the text: 3508 patients who were in accordance with the diagnostic standards of AMI for 28 days to 2 years and differentiated as Qi deficiency and blood stagnation syndrome by TCM were studied. 0.5 g Chinese medicine composition prepared by the method of EXAMPLE 1 (Coded as QSYQ) was administrated half an hour after meal, 3 times per day.
There were 19 questions in the Seattle angina questionnaire (SAQ), including 5 parts: physical limitation (PL), anginal stability (AS), anginal frequency (AF), treatment satisfaction (TS) and disease perception (DP). After being given necessary explanation by doctors, the questions were answered independently by patients.
They included the overall survival time, angina pectoris score, TCM symptom score and life quality score, where angina pectoris score, TCM symptom score and life quality score were evaluated at randomization, in 1st, 3rd, 6th, 9th, 12th month after treatment and 18th month after follow-up.
All evaluation results of SAQ were described during the period of observation, and Wilcoxon rank sum test was used for inter-group comparison.
The evaluation results in the SAQ were depicted in different observations, and inter-group comparison was tested by Wilcoxon Rank-sum test.

## CC(=O)Oc1ccccc1C(=O)O [Control group, aspirine]
Baseline, FAS
  SAQ Question 1-9: Other reasons, % of cases: (5.84%)
  SAQ Question 1-9: Other reasons, cases: 99
  SAQ Question 1-9: Severely limited, % of cases: (47.34%)
  SAQ Question 1-9: Severely limited, cases: 802
  SAQ Question 1-9: Slightly limited, % of cases: (8.56%)
  SAQ Question 1-9: Slightly limited, cases: 145
Baseline, PP
  SAQ 2nd question: Clearly increased, % of cases: (3.09%)
  SAQ 2nd question: Clearly increased, cases: 46
  SAQ 2nd question: Clearly reduced, % of cases: (12.16%)
  SAQ 2nd question: Clearly reduced, cases: 181
  SAQ 2nd question: Same, % of cases: (63.00%)
  SAQ 2nd question: Same, cases: 938
  SAQ 2nd question: Slightly increased, % of cases: (6.72%)
  SAQ 2nd question: Slightly increased, cases: 100
  SAQ 2nd question: Slightly reduced, % of cases: (15.04%)
  SAQ 2nd question: Slightly reduced, cases: 224
  SAQ 3rd question: 1-2 times per week, % of cases: (15.04%)
  SAQ 3rd question: 1-2 times per week, cases: 224
  SAQ 3rd question: 1-3 times per day, % of cases: (6.72%)
  SAQ 3rd question: 1-3 times per day, cases: 100
  SAQ 3rd question: <1 time per week, % of cases: (12.16%)
  SAQ 3rd question: <1 time per week, cases: 181
  SAQ 3rd question: No onset, % of cases: (0.00%)
  SAQ 3rd question: No onset, cases: 0
  SAQ 3rd question: ≧3 times per week, % of cases: (63.00%)
  SAQ 3rd question: ≧3 times per week, cases: 938
  SAQ 3rd question: ≧4 times per day, % of cases: (3.09%)
  SAQ 3rd question: ≧4 times per day, cases: 46
  SAQ Question 1-3: Mildly limited, number of patients: 135
  SAQ Question 1-3: Mildly limited, percent of patients: (9.04%)
  SAQ Question 1-3: Moderately limited, number of patients: 44
  SAQ Question 1-3: Moderately limited, percent of patients: (2.95%)
  SAQ Question 1-3: Not limited, number of patients: 985
  SAQ Question 1-3: Not limited, percent of patients: (65.97%)
  SAQ Question 1-3: Other reasons, number of patients: 10
  SAQ Question 1-3: Other reasons, percent of patients: (0.67%)
  SAQ Question 1-3: Severely limited, number of patients: 12
  SAQ Question 1-3: Severely limited, percent of patients: (0.80%)
  SAQ Question 1-3: Slightly limited, number of patients: 307
  SAQ Question 1-3: Slightly limited, percent of patients: (20.56%)
  SAQ Question 1-4: Mildly limited, number of patients: 347
  SAQ Question 1-4: Mildly limited, percent of patients: (23.30%)
  SAQ Question 1-4: Moderately limited, number of patients: 185
  SAQ Question 1-4: Moderately limited, percent of patients: (12.42%)
  SAQ Question 1-4: Not limited, number of patients: 414
  SAQ Question 1-4: Not limited, percent of patients: (27.80%)
  SAQ Question 1-4: Other reasons, number of patients: 14
  SAQ Question 1-4: Other reasons, percent of patients: (0.94%)
  SAQ Question 1-4: Severely limited, number of patients: 51
  SAQ Question 1-4: Severely limited, percent of patients: (3.43%)
  SAQ Question 1-4: Slightly limited, number of patients: 478
  SAQ Question 1-4: Slightly limited, percent of patients: (32.10%)
  SAQ Question 1-5: Mildly limited, number of patients: 309
  SAQ Question 1-5: Mildly limited, percent of patients: (20.72%)
  SAQ Question 1-5: Moderately limited, number of patients: 210
  SAQ Question 1-5: Moderately limited, percent of patients: (14.08%)
  SAQ Question 1-5: Not limited, number of patients: 473
  SAQ Question 1-5: Not limited, percent of patients: (31.72%)
  SAQ Question 1-5: Other reasons, number of patients: 12
  SAQ Question 1-5: Other reasons, percent of patients: (0.80%)
  SAQ Question 1-5: Severely limited, number of patients: 46
  SAQ Question 1-5: Severely limited, percent of patients: (3.09%)
  SAQ Question 1-5: Slightly limited, number of patients: 441
  SAQ Question 1-5: Slightly limited, percent of patients: (29.58%)
  SAQ Question 1-9: Mildly limited, % of cases: (14.67%)
  SAQ Question 1-9: Mildly limited, cases: 213
  SAQ Question 1-9: Moderately limited, % of cases: (20.73%)
  SAQ Question 1-9: Moderately limited, cases: 301
  SAQ Question 1-9: Not limited, % of cases: (2.27%)
  SAQ Question 1-9: Not limited, cases: 33
  SAQ Question 1-9: Other reasons, % of cases: (6.34%)
  SAQ Question 1-9: Other reasons, cases: 92
  SAQ Question 1-9: Severely limited, % of cases: (48.55%)
  SAQ Question 1-9: Severely limited, cases: 705
  SAQ Question 1-9: Slightly limited, % of cases: (7.44%)
  SAQ Question 1-9: Slightly limited, cases: 108
FAS, 1 month after treatment
  8th question: Dissatisfied, patients (%): (0.34%)
